Results published in patent publication US20240239781A1, “1H-PYRAZOLE DERIVATIVES AS SIGMA LIGANDS” (ACONDICIONAMIENTO TARRASENSE, priority 2021, published 2024).

Experiments:
human σ1 receptor = biological target: T1, human σ1 receptor (Homo sapiens, UniProt Q99720); assay: Human σ1 receptor radioligand assay ([3H](+)-pentazocine, transfected HEK-293 membranes); conditions: class scale, read-out: Binding σ-1 Ki
T1 construct: expressed in transfected cells; host or cells: HEK-293
Procedure, shortened: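 Compounds were tested at a single 1 or 10 μM concentration (% inhibition) or at five concentrations to give Ki. They competed with 5 nM [3H](+)-pentazocine for transfected HEK-293 membranes (7 μg) in 50 mM Tris-HCl pH 8 at 37° C for 120 minutes. Nonspecific binding was set with 10 μM haloperidol, and a filtration scintillation read-out was used.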

human σ2/TMEM97 receptor = biological target: T2, human σ2/TMEM97 receptor (Homo sapiens, UniProt Q5BJF2); assay: Binding assay to human σ2/TMEM97 receptor ([3H]-DTG, transfected HEK-293 membranes); conditions: class scale, read-out: Binding σ-2 Ki
T2 construct: expressed in transfected cells; host or cells: HEK-293
T2 sequence (Q5BJF2 whole entry): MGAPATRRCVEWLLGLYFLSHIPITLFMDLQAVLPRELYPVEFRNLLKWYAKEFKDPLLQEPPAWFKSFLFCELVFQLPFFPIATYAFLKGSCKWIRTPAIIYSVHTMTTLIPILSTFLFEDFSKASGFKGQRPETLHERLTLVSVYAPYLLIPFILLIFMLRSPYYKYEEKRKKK
Procedure, shortened: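 Competition against 10 nM [3H]-DTG (Tris-HCl 50 mM, pH 8.0, 25 °C, 120 min) using 15 μg transfected HEK-293 membrane protein, with 10 μM haloperidol defining NSB. Bound radioactivity counted after filtration; results as single-point % inhibition (1 or 10 μM) or five-point Ki.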

T1 sequence (Q99720 whole entry): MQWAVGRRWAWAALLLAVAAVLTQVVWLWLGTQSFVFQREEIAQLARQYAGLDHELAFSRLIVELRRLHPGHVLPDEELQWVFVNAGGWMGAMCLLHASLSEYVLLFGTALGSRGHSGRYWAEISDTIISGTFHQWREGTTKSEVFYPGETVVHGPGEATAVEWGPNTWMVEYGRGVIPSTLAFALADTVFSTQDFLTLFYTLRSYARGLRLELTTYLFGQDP

Structure (SMILES) | Ki (human σ1 receptor) | Ki (human σ2/TMEM97 receptor)
Cc1cc(-c2nn(C)c(Cl)c2CC(=O)N2CCC3(CCN(CCC(C)C)CC3)CC2)no1 [Example 120] | 100 to 500 nM | < 100 nM
Cc1cc(-c2nn(C)c(Cl)c2CN2CCCC(CNCC(C)C)C2)no1 (centres unmarked) [Example 48, N-((1-((5-Chloro-1-methyl-3-(5-methylisoxazol-3-yl)-1H-pyrazol-4-yl)methyl)piperidin-3-yl)methyl)-2-methylpropan-1-amine] | > 1000 nM | 100 to 500 nM
CC(C)CCN[C@H]1CCCCN(Cc2c(-c3noc4c3COCC4)nn(C)c2Cl)C1 [Example 40, (S)-1-((5-Chloro-3-(6,7-dihydro-4H-pyrano[3,4-d]isoxazol-3-yl)-1-methyl-1H-pyrazol-4-yl)methyl)-N-isopentylazepan-3-amine] | 100 to 500 nM | 100 to 500 nM
CCCNCC1CCN(Cc2c(-c3cc(C)on3)nn(C)c2Cl)C1 (centres unmarked) [Example 47, N-((1-((5-Chloro-1-methyl-3-(5-methylisoxazol-3-yl)-1H-pyrazol-4-yl)methyl)pyrrolidin-3-yl)methyl)propan-1-amine] | > 1000 nM | > 1000 nM
Cc1cc(-c2nn(C)c(Cl)c2CN2CCCCC(N(C)CCN3CCCCC3)C2)no1 (centres unmarked) [Example 82, 1-((5-Chloro-1-methyl-3-(5-methylisoxazol-3-yl)-1H-pyrazol-4-yl)methyl)-N-methyl-N-(2-(piperidin-1-yl)ethyl)azepan-3-amine] | 500 to 1000 nM | 100 to 500 nM
CC(C)CCNC1CCCCN(Cc2c(-c3cccnc3)nn(C)c2Cl)C1 (centres unmarked) [Example 31, 1-((5-Chloro-1-methyl-3-(pyridin-3-yl)-1H-pyrazol-4-yl)methyl)-N-isopentylazepan-3-amine] | 500 to 1000 nM | > 1000 nM
Cc1cc(-c2nn(C)c(Cl)c2CN2CCC3(C2)CN(CCc2ccccc2)C3)no1 [Example 61, 3-(5-Chloro-1-methyl-4-((2-phenethyl-2,6-diazaspiro[3.4]octan-6-yl)methyl)-1H-pyrazol-3-yl)-5-methylisoxazole] | 100 to 500 nM | < 100 nM

Second part, the compound after the results:

Ki (human σ1 receptor) | Ki (human σ2/TMEM97 receptor) | Structure (SMILES)
100 to 500 nM | < 100 nM | Cc1cc(-c2nn(-c3ccncc3)c(Cl)c2C(=O)N2CCC3(CCN(CCC(C)(C)C)CC3)CC2)no1 [Example 170, (5-Chloro-3-(5-methylisoxazol-3-yl)-1-(pyridin-4-yl)-1H-pyrazol-4-yl)(9-(3,3-dimethylbutyl)-3,9-diazaspiro[5.5]undecan-3-yl)methanone]
100 to 500 nM | 100 to 500 nM | Cc1cc(-c2nn(C)c(Cl)c2C(=O)NC2CC3(CCN(Cc4ccccc4)CC3)C2)no1 [Example 153, N-(7-Benzyl-7-azaspiro[3.5]nonan-2-yl)-5-chloro-1-methyl-3-(5-methylisoxazol-3-yl)-1H-pyrazole-4-carboxamide]
< 100 nM | < 100 nM | CCn1nc(-c2ccon2)c(CC(=O)Nc2ccc3c(c2)CCN(CCC(C)(C)C)C3)c1Cl [Example 211, 2-(5-Chloro-1-ethyl-3-(isoxazol-3-yl)-1H-pyrazol-4-yl)-N-(2-(3,3-dimethylbutyl)-1,2,3,4-tetrahydroisoquinolin-6-yl)acetamide]
500 to 1000 nM | < 100 nM | CCn1cc(-c2nn(C)c(Cl)c2C(=O)N2CCC3(CCN(CCC(C)(C)C)CC3)CC2)cn1 [Example 196, (5-Chloro-1′-ethyl-1-methyl-1H,1′H-[3,4′-bipyrazol]-4-yl)(9-(3,3-dimethylbutyl)-3,9-diazaspiro[5.5]undecan-3-yl)methanone]
> 1000 nM | < 100 nM | Cc1cc(-c2nn(C)c(Cl)c2C(=O)N2CCCC3(CCN(CC(C)(C)C)CC3)C2)no1 [Example 157, (5-Chloro-1-methyl-3-(5-methylisoxazol-3-yl)-1H-pyrazol-4-yl)(9-neopentyl-2,9-diazaspiro[5.5]undecan-2-yl)methanone]
100 to 500 nM | 100 to 500 nM | CCn1nc(-c2cc(C)on2)c(C(=O)N[C@H]2CC[C@@H](NCCC(C)(C)C)CC2)c1Cl [Example 201, 5-Chloro-N-((1s,4s)-4-((3,3-dimethylbutyl)amino)cyclohexyl)-1-ethyl-3-(5-methylisoxazol-3-yl)-1H-pyrazole-4-carboxamide]
